Values of other authors, collected in PMC6376154 (International Journal for Parasitology: Drugs and Drug …, 2019).
Where two headings read alike, the source gives them in different places.

System: P. falciparum 3D7 asexual blood stage
Conditions: cited from earlier work
[1] = MMV Malaria Box data sheet (supplement mmc2.xls), ref MMV data sheet
[2] = MMV Malaria Box data sheet (supplement mmc2.xls), ref MMV data sheet, read-out: EC50_nM
[3] = MMV Malaria Box sheet, ref MMV data sheets
[4] = MMV Malaria Box sheet, ref MMV data sheets, read-out: EC50_nM
[5] = source StJude, ref ChEMBL_NTD, read-out: CHEMBL EC50
[6] = ChEMBL-NTD value per source (GNF, GSK, StJude), several values in a cell follow the order of the sources, read-out: CHEMBL EC50
[7] = MMV Malaria Box data sheet, ref MMV data sheets
[8] = MMV Malaria Box data sheet, ref MMV data sheets, read-out: EC50_nM
[9] = source GNF, ref ChEMBL_NTD, read-out: CHEMBL EC50
[10] = value(s) per source (GSK, GNF, StJude), separated by semicolon, ref ChEMBL-NTD, read-out: CHEMBL EC50

Row | Structure (SMILES) | percent_inh @ 5 uM [3] [%] | EC50 [4] [nM] | EC50 [5] [nM] | percent_inh @ 5 uM [7] [%] | other results
1 | CCN(CC)CCn1c(=N)n(CC(O)c2ccc(Cl)c(Cl)c2)c2ccccc21 (centres unmarked) [MMV000248] |  |  |  |  | percent_inh @ 5 uM [1]: 97%; EC50 [2]: 718 nM
2 | CCOc1ccc(Nc2c3ccccc3nc3ccccc23)cc1 [MMV000304] | 97 | 1060 | 5720 |  | 
3 | Cc1ccc2nc(C)cc(Nc3cccc(C(F)(F)F)c3)c2c1 [MMV000326] | 98 | 1170 | 879 |  | 
4 | CCn1c2c(c(=N)c3c1CCC3)CCCC2 [MMV000340] |  |  |  |  | EC50 [6]: 3120 nM
5 | CC(C)(C)c1ccc2c(c1)CN(Cc1ccc(Cl)cc1)CO2 [MMV000442] | 98 | 362 | 255 |  | 
6 | CCOc1ccc2c(c1)CN(Cc1ccc(Cl)cc1)CO2 [MMV000443] | 97 | 439 | 1490 |  | 
7 | CCCCCn1c(=N)n(CC(O)COc2cccc(C)c2)c2ccccc21 (centres unmarked) [MMV000444] | 96 |  | 2650 |  | 
8 | CCCCCCn1c(=N)n(CC(O)COc2cccc(C)c2)c2ccccc21 (centres unmarked) [MMV000445] | 98 | 1140 | 1970 |  | 
9 | CN(C)CCCNc1c2ccccc2nc2ccccc12 [MMV000448] |  |  | 531 | 95 | EC50 [8]: 235 nM; EC50 [9]: 32.7 nM; EC50 (source GSK, ref ChEMBL_NTD, read-out: CHEMBL EC50): 1040 nM
10 | CCOc1cc2c(cc1OCC)C(c1cc(Cl)c(O)c(OCC)c1)NCC2 (centres unmarked) [MMV000481] | 96 | 1330 | 3010 |  | 
11 | CCOc1cc2c(cc1OCC)C(c1cc(C)c(O)c(C)c1)NCC2 (centres unmarked) [MMV000483] | 97 | 683 | 1830 |  | 
12 | CCN(CC)c1cc(C)c2cc(NC(=O)c3cccc(OC)c3)ccc2n1 [MMV000498] |  |  |  |  | percent_inh @ 5 uM [1]: 97%; EC50 [10]: 4770 nM
13 | CCCN(CCC)CCCNC(=O)c1cc2c(-c3ccc(OC)c(OC)c3)nn(C)c2s1 [MMV000561] |  |  |  |  | percent_inh @ 5 uM [1]: 98%; EC50 [2]: 1430 nM; EC50 [10]: 4040 nM
14 | COc1ccc(C2Sc3ccccc3N=C3C2=C(O)c2ccccc23)cc1 (centres unmarked) [MMV000563] |  |  |  | 96 | EC50 [8]: 845 nM; EC50 [9]: 238 nM
15 | CCc1ccc(Nc2cc(C)c3ccc(O)cc3n2)cc1 [MMV000570] |  |  | 732 | 98 | EC50 [8]: 194 nM
16 | COc1ccc(-c2cc(=O)oc3c4c(ccc23)OCN(Cc2ccc(F)cc2)C4)cc1 [MMV000604] | 96 | 735 | 5210 |  | 
17 | COc1ccc(C(O)(CCC(C)C)C(CN2CCOCC2)c2ccc(Cl)cc2)cc1 (centres unmarked) [MMV000617] |  |  |  |  | EC50 [6]: 4610 nM
18 | CCCCC(O)(c1ccc(Cl)cc1)C(CN1CCOCC1)c1ccc(Cl)cc1 (centres unmarked) [MMV000619] | 98 | 1380 | 4010 |  | 
19 | CC(O)(c1ccc(Cl)cc1)C(CN1CCCCC1)c1ccccc1 (centres unmarked) [MMV000620] |  |  | 916 | 94 | 
20 | CCCCCCC(O)(c1ccc(F)cc1)C(CN1CCOCC1)c1ccccc1 (centres unmarked) [MMV000621] | 93 |  | 3180 |  | 
21 | CC1CCCCN1CCCNC(=O)c1ccc2c(c1)sc1nc(-c3ccc(F)cc3)cn12 (centres unmarked) [MMV000634] |  |  | 634 | 98 | EC50 [8]: 648 nM
22 | COc1ccc(NC(=O)C2c3ccccc3C(=O)N(CC(C)C)C2c2cccs2)cc1Cl (centres unmarked) [MMV000642] |  |  | 119 | 100 | EC50 [8]: 20.2 nM; EC50 [9]: 91.4 nM
23 | COc1ccccc1CNC(=O)C1c2ccccc2C(=O)N(CC(C)C)C1c1cccs1 (centres unmarked) [MMV000648] |  |  |  |  | percent_inh @ 5 uM [1]: 97%; EC50 [10]: 3160 nM
24 | CCOc1ccccc1CNC(=O)C1c2ccccc2C(=O)N(CC(C)C)C1c1cccs1 (centres unmarked) [MMV000653] |  |  | 1430 | 97 | EC50 [8]: 1320 nM
25 | COc1ccc(NC(=O)C2c3ccccc3C(=O)N(CC(C)C)C2c2cccs2)cc1 (centres unmarked) [MMV000662] |  |  | 102 | 100 | EC50 [8]: 36.7 nM
